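Compound exposure: 48 hours, 5 concentrations, 96-well plates. The concentration for 50% growth inhibition is given as GI50.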 Active and inactive are the calls of the source. No stated cut-off is given here; in the data, active = GI50 up to about 1.1 µM and inactive = higher.
Legend:
Assay in all cases: DTP human tumour cell line panel, 48 h
NCI-H23 = tested on: NCI-H23
LOX IMVI = tested on: LOX IMVI
SNB-78 = tested on: SNB-78
OVCAR-4 = tested on: OVCAR-4
HOP-92 = tested on: HOP-92
HCT-116 = tested on: HCT-116
IGROV-1 = tested on: IGROV-1
RPMI-8226 = tested on: RPMI-8226
KM-20L2 = tested on: KM-20L2
NCI-H460 = tested on: NCI-H460
HOP-18 = tested on: HOP-18
SF-539 = tested on: SF-539
786-0 = tested on: 786-0
A498 = tested on: A498
TK-10 = tested on: TK-10
DMS-273 = tested on: DMS-273
DLD-1 = tested on: DLD-1
SF-268 = tested on: SF-268
OVCAR-5 = tested on: OVCAR-5
UO-31 = tested on: UO-31
Malme-3M = tested on: Malme-3M
HOP-62 = tested on: HOP-62
HCC 2998 = tested on: HCC 2998
SW-620 = tested on: SW-620
SR = tested on: SR
SK-MEL-2 = tested on: SK-MEL-2
OVCAR-8 = tested on: OVCAR-8
A549 = tested on: A549
M19-MEL = tested on: M19-MEL
KM12 = tested on: KM12
SK-OV-3 = tested on: SK-OV-3
U-251 = tested on: U-251
ACHN = tested on: ACHN
HT-29 = tested on: HT-29
HL-60 = tested on: HL-60
K562 = tested on: K562
COLO 205 = tested on: COLO 205
EKVX = tested on: EKVX
SK-MEL-28 = tested on: SK-MEL-28
SF-295 = tested on: SF-295
RXF 393 = tested on: RXF 393
SN12C = tested on: SN12C
HCT-15 = tested on: HCT-15
UACC-257 = tested on: UACC-257
MOLT-4 = tested on: MOLT-4
NCI-H522 = tested on: NCI-H522
LXFL 529 = tested on: LXFL 529
CCRF-CEM = tested on: CCRF-CEM
OVCAR-3 = tested on: OVCAR-3
SNB-19 = tested on: SNB-19
NCI-H226 = tested on: NCI-H226
M14 = tested on: M14
XF498 = tested on: XF498
CAKI-1 = tested on: CAKI-1
UACC-62 = tested on: UACC-62
DMS-114 = tested on: DMS-114
SNB-75 = tested on: SNB-75

SMILES: Cc1cn(C2CC(OC3CCCCO3)C(CO)O2)c(=O)[nH]c1=O (stereo not drawn)
- GI50 (NCI-H23): > 100 µM (inactive)
- GI50 (LOX IMVI): > 100 µM (inactive)
- GI50 (SNB-78): > 100 µM (inactive)
- GI50 (OVCAR-4): > 100 µM (inactive)
- GI50 (HOP-92): > 100 µM (inactive)
- GI50 (HCT-116): > 100 µM (inactive)
- GI50 (IGROV-1): > 100 µM (inactive)
- GI50 (RPMI-8226): > 100 µM (inactive)
- GI50 (KM-20L2): > 100 µM (inactive)
- GI50 (NCI-H460): > 100 µM (inactive)
- GI50 (HOP-18): > 100 µM (inactive)
- GI50 (SF-539): > 100 µM (inactive)
- GI50 (786-0): > 100 µM (inactive)
- GI50 (A498): > 100 µM (inactive)
- GI50 (TK-10): > 100 µM (inactive)
- GI50 (DMS-273): > 100 µM (inactive)
- GI50 (DLD-1): > 100 µM (inactive)
- GI50 (SF-268): > 100 µM (inactive)
- GI50 (OVCAR-5): > 100 µM (inactive)
- GI50 (UO-31): > 100 µM (inactive)
- GI50 (Malme-3M): > 100 µM (inactive)
- GI50 (HOP-62): > 100 µM (inactive)
- GI50 (HCC 2998): > 100 µM (inactive)
- GI50 (SW-620): > 100 µM (inactive)
- GI50 (SR): > 100 µM (inactive)
- GI50 (SK-MEL-2): > 100 µM (inactive)
- GI50 (OVCAR-8): > 100 µM (inactive)
- GI50 (A549): > 100 µM (inactive)
- GI50 (M19-MEL): > 100 µM (inactive)
- GI50 (KM12): > 100 µM (inactive)
- GI50 (SK-OV-3): > 100 µM (inactive)
- GI50 (U-251): > 100 µM (inactive)
- GI50 (ACHN): > 100 µM (inactive)
- GI50 (HT-29): > 100 µM (inactive)
- GI50 (HL-60): > 100 µM (inactive)
- GI50 (K562): > 100 µM (inactive)
- GI50 (COLO 205): > 100 µM (inactive)
- GI50 (EKVX): > 100 µM (inactive)
- GI50 (SK-MEL-28): > 100 µM (inactive)
- GI50 (SF-295): > 100 µM (inactive)
- GI50 (RXF 393): > 100 µM (inactive)
- GI50 (SN12C): > 100 µM (inactive)
- GI50 (HCT-15): > 100 µM
- GI50 (UACC-257): > 100 µM (inactive)
- GI50 (MOLT-4): > 100 µM (inactive)
- GI50 (NCI-H522): > 100 µM (inactive)
- GI50 (LXFL 529): > 100 µM (inactive)
- GI50 (CCRF-CEM): > 100 µM (inactive)
- GI50 (OVCAR-3): > 100 µM (inactive)
- GI50 (SNB-19): > 100 µM (inactive)
- GI50 (NCI-H226): > 100 µM (inactive)
- GI50 (M14): > 100 µM (inactive)
- GI50 (XF498): > 100 µM (inactive)

SMILES: CC(=O)Nc1ccccc1-c1nc2ccccc2nc1-c1ccccc1
- GI50 (NCI-H23): > 100 µM (inactive)
- GI50 (SNB-78): > 100 µM (inactive)
- GI50 (OVCAR-4): > 100 µM (inactive)
- GI50 (HOP-92): > 100 µM (inactive)
- GI50 (HCT-116): > 100 µM (inactive)
- GI50 (IGROV-1): > 100 µM (inactive)
- GI50 (RPMI-8226): > 100 µM (inactive)
- GI50 (KM-20L2): > 100 µM (inactive)
- GI50 (NCI-H460): > 100 µM (inactive)
- GI50 (CAKI-1): > 100 µM (inactive)
- GI50 (HOP-18): 0.521 µM (active)
- GI50 (SF-539): > 100 µM (inactive)
- GI50 (786-0): > 100 µM (inactive)
- GI50 (A498): > 100 µM (inactive)
- GI50 (DMS-273): > 100 µM (inactive)
- GI50 (DLD-1): > 100 µM (inactive)
- GI50 (UACC-62): > 100 µM (inactive)
- GI50 (UO-31): 54.7 µM (inactive)
- GI50 (HOP-62): > 100 µM (inactive)
- GI50 (DMS-114): > 100 µM (inactive)
- GI50 (HCC 2998): > 100 µM (inactive)
- GI50 (SW-620): > 100 µM (inactive)
- GI50 (SR): > 100 µM (inactive)
- GI50 (SK-MEL-2): > 100 µM (inactive)
- GI50 (OVCAR-8): > 100 µM (inactive)
- GI50 (A549): > 100 µM (inactive)
- GI50 (M19-MEL): > 100 µM (inactive)
- GI50 (SNB-75): 69.7 µM (inactive)
- GI50 (KM12): > 100 µM (inactive)
- GI50 (SK-OV-3): > 100 µM (inactive)
- GI50 (U-251): > 100 µM (inactive)
- GI50 (ACHN): > 100 µM (inactive)
- GI50 (HT-29): > 100 µM (inactive)
- GI50 (HL-60): > 100 µM (inactive)
- GI50 (K562): > 100 µM (inactive)
- GI50 (COLO 205): > 100 µM (inactive)
- GI50 (EKVX): > 100 µM (inactive)
- GI50 (SK-MEL-28): > 100 µM (inactive)
- GI50 (SF-295): > 100 µM (inactive)
- GI50 (RXF 393): > 100 µM (inactive)
- GI50 (SN12C): > 100 µM (inactive)
- GI50 (HCT-15): > 100 µM
- GI50 (UACC-257): > 100 µM (inactive)
- GI50 (MOLT-4): > 100 µM (inactive)
- GI50 (LXFL 529): > 100 µM (inactive)
- GI50 (CCRF-CEM): > 100 µM (inactive)
- GI50 (OVCAR-3): > 100 µM (inactive)
- GI50 (SNB-19): > 100 µM (inactive)
- GI50 (M14): > 100 µM (inactive)
- GI50 (XF498): > 100 µM (inactive)

Reference: ChEMBL document CHEMBL1201862, “PubChem BioAssay data set” (2004)
